In patent US20230024096A1, “BIFUNCTIONAL COMPOUNDS FOR THE TREATMENT OF CANCER” (Hoffmann-La Roche Inc., priority 2019, published 2023):

Molecular target: T1, SMARCA2 (Homo sapiens, UniProt P51531)
T1 construct: endogenous in cells; host or cells: HT1080 (CRISPR HiBiT knock-in clone, generated in house)
Experiment: SMARCA2 HiBiT degradation assay (cellular)
Format: cell-based
Conditions: table head names A549; for DC50: HiBiT-tagged SMARCA2, luminescence read-out, read-out: HiBit A549 SMARCA2 IP (nM) 6 h; for Emax: A549, 6 h incubation

[1] = Emax = amount of residual protein remaining in the cell following compound treatment

T1 sequence (P51531 whole entry): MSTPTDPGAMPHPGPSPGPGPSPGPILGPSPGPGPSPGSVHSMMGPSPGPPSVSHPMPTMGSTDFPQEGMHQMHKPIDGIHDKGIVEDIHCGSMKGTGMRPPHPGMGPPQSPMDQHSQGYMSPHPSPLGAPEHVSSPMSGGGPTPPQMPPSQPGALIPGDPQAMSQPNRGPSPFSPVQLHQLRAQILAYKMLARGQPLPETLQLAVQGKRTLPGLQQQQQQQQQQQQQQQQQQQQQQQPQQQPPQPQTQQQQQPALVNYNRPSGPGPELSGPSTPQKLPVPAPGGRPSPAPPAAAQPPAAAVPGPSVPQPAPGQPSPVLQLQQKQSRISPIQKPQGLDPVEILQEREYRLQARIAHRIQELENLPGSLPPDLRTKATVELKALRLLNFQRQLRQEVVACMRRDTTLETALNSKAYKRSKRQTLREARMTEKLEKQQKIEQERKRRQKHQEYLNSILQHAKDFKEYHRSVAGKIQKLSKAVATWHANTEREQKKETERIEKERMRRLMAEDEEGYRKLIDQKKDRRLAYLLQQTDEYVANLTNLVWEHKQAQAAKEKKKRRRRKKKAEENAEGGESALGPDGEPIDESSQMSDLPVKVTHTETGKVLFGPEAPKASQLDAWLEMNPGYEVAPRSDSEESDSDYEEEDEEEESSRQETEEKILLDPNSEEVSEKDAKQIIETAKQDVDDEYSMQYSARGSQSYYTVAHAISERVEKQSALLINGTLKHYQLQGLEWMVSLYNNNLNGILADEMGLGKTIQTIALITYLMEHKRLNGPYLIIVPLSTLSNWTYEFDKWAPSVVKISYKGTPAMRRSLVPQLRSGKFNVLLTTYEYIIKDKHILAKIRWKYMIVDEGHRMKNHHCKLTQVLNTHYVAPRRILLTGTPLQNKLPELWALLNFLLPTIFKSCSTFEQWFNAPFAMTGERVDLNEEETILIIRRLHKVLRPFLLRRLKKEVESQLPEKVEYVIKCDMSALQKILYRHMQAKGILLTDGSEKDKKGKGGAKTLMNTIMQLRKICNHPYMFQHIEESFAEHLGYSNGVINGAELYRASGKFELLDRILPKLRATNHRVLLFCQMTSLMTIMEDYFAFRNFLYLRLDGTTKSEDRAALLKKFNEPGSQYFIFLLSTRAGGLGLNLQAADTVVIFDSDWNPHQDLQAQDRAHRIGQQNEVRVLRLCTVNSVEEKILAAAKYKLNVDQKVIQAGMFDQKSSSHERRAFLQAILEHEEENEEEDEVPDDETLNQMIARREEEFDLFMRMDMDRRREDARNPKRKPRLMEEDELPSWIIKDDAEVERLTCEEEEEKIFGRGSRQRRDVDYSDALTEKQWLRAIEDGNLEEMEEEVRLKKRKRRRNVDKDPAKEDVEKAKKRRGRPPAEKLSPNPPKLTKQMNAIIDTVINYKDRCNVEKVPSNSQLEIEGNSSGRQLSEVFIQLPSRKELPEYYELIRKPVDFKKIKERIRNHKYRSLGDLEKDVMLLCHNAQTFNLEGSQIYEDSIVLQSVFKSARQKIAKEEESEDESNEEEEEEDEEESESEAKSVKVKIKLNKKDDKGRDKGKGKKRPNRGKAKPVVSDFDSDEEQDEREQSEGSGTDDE

With `Nc1nnc(-c2ccccc2O)cc1N1CC2CCC(C1)N2c1cccc(OCCN2CCN(C(=O)CCC(=O)N3CCC(Oc4cccc5c4C(=O)N(C4CCC(=O)NC4=O)C5=O)CC3)CC2)c1` (racemic) [Example 9, rac-4-[[1-[4-[4-[2-[3-[3-[3-amino-6-(2-hydroxyphenyl)pyridazin-4-yl]-3,8-diazabicyclo[3.2.1]octan-8-yl]phenoxy]ethyl]piperazin-1-yl]-4-oxo-butanoyl]-4-piperidyl]oxy]-2-(2,6-dioxo-3-piperidyl)isoindoline-1,3-dione] the DC50 (6 h incubation) was 339 nM and the Emax [1] was 58%.
Compound `Nc1nnc(-c2ccccc2O)cc1N1CC2CCC(C1)N2c1cccc(OCCN2CCN(C(=O)CCC(=O)N3CCC(Oc4ccc5c(c4)C(=O)N(C4CCC(=O)NC4=O)C5=O)CC3)CC2)c1` (racemic) [Example 10, rac-5-[[1-[4-[4-[2-[3-[3-[3-amino-6-(2-hydroxyphenyl)pyridazin-4-yl]-3,8-diazabicyclo[3.2.1]octan-8-yl]phenoxy]ethyl]piperazin-1-yl]-4-oxo-butanoyl]-4-piperidyl]oxy]-2-(2,6-dioxo-3-piperidyl)isoindoline-1,3-dione] has a DC50 (6 h incubation) of 58 nM and an Emax [1] of 49%.
`Nc1nnc(-c2ccccc2O)cc1N1CC2CCC(C1)N2c1cccc(OCCN2CCN(C(=O)CCCCCCCNc3cccc4c3C(=O)N(C3CCC(=O)NC3=O)C4=O)CC2)c1` (racemic) [Example 11, rac-4-[[8-[4-[2-[3-[3-[3-amino-6-(2-hydroxyphenyl)pyridazin-4-yl]-3,8-diazabicyclo[3.2.1]octan-8-yl]phenoxy]ethyl]piperazin-1-yl]-8-oxo-octyl]amino]-2-(2,6-dioxo-3-piperidyl)isoindoline-1,3-dione] showed a DC50 (6 h incubation) of 146 nM and an Emax [1] of 64%.
In the case of `Nc1nnc(-c2ccccc2O)cc1N1CC2CCC(C1)N2c1cccc(OCCN2CCN(C(=O)CCCCCNc3cccc4c3C(=O)N(C3CCC(=O)NC3=O)C4=O)CC2)c1` (racemic) [Example 12, rac-4-[[6-[4-[2-[3-[3-[3-amino-6-(2-hydroxyphenyl)pyridazin-4-yl]-3,8-diazabicyclo[3.2.1]octan-8-yl]phenoxy]ethyl]piperazin-1-yl]-6-oxo-hexyl]amino]-2-(2,6-dioxo-3-piperidyl)isoindoline-1,3-dione], the DC50 (6 h incubation) is reported as 60 nM and the Emax [1] is reported as 55%.
`Nc1nnc(-c2ccccc2O)cc1N1CC2CCC(C1)N2c1cccc(OCCN2CCN(C(=O)C3CCN(c4cccc5c4C(=O)N(C4CCC(=O)NC4=O)C5=O)CC3)CC2)c1` (racemic) [Example 13, rac-4-[4-[4-[2-[3-[3-[3-amino-6-(2-hydroxyphenyl)pyridazin-4-yl]-3,8-diazabicyclo[3.2.1]octan-8-yl]phenoxy]ethyl]piperazine-1-carbonyl]-1-piperidyl]-2-(2,6-dioxo-3-piperidyl)isoindoline-1,3-dione] gave a DC50 (6 h incubation) of 32 nM and an Emax [1] of 64%.
In the case of `Nc1nnc(-c2ccccc2O)cc1N1CC2CCC(C1)N2c1cccc(OCCN2CCN(C(=O)CCC3CCN(c4ccc5c(c4)C(=O)N(C4CCC(=O)NC4=O)C5=O)CC3)CC2)c1` (racemic) [Example 14, rac-5-[4-[3-[4-[2-[3-[3-[3-amino-6-(2-hydroxyphenyl)pyridazin-4-yl]-3,8-diazabicyclo[3.2.1]octan-8-yl]phenoxy]ethyl]piperazin-1-yl]-3-oxo-propyl]-1-piperidyl]-2-(2,6-dioxo-3-piperidyl)isoindoline-1,3-dione], the DC50 (6 h incubation) is reported as 31 nM and the Emax [1] is reported as 45%.
`Nc1nnc(-c2ccccc2O)cc1N1CC2CCC(C1)N2c1cccc(OCCN2CCN(C(=O)CC3CCN(c4cccc5c4C(=O)N(C4CCC(=O)NC4=O)C5=O)CC3)CC2)c1` (racemic) [Example 15, rac-4-[4-[2-[4-[2-[3-[3-[3-amino-6-(2-hydroxyphenyl)pyridazin-4-yl]-3,8-diazabicyclo[3.2.1]octan-8-yl]phenoxy]ethyl]piperazin-1-yl]-2-oxo-ethyl]-1-piperidyl]-2-(2,6-dioxo-3-piperidyl)isoindoline-1,3-dione] showed a DC50 (6 h incubation) of 35 nM and an Emax [1] of 52%.
In the case of `Nc1nnc(-c2ccccc2O)cc1N1CC2CCC(C1)N2c1cccc(OCCN2CCN(C(=O)CCC3CCN(c4cccc5c4C(=O)N(C4CCC(=O)NC4=O)C5=O)CC3)CC2)c1` (racemic) [Example 16, rac-4-[4-[3-[4-[2-[3-[3-[3-amino-6-(2-hydroxyphenyl)pyridazin-4-yl]-3,8-diazabicyclo[3.2.1]octan-8-yl]phenoxy]ethyl]piperazin-1-yl]-3-oxo-propyl]-1-piperidyl]-2-(2,6-dioxo-3-piperidyl)isoindoline-1,3-dione], the DC50 (6 h incubation) is reported as 46 nM and the Emax [1] is reported as 50%.
For `Nc1nnc(-c2ccccc2O)cc1N1CC2CCC(C1)N2c1cccc(OCCN2CCN(C(=O)CCCNC(=O)COc3cccc4c3C(=O)N(C3CCC(=O)NC3=O)C4=O)CC2)c1` (racemic) [Example 17, rac-N-[4-[4-[2-[3-[3-[3-amino-6-(2-hydroxyphenyl)pyridazin-4-yl]-3,8-diazabicyclo[3.2.1]octan-8-yl]phenoxy]ethyl]piperazin-1-yl]-4-oxo-butyl]-2-[2-(2,6-dioxo-3-piperidyl)-1,3-dioxo-isoindolin-4-yl]oxy-acetamide], the DC50 (6 h incubation) was 1440 nM and the Emax [1] was 64%.
For `Nc1nnc(-c2ccccc2O)cc1N1CC2CCC(C1)N2c1cccc(OCCN2CCN(C(=O)CNC(=O)C3CCN(c4cccc5c4C(=O)N(C4CCC(=O)NC4=O)C5=O)CC3)CC2)c1` (racemic) [Example 18, rac-N-[2-[4-[2-[3-[3-[3-amino-6-(2-hydroxyphenyl)pyridazin-4-yl]-3,8-diazabicyclo[3.2.1]octan-8-yl]phenoxy]ethyl]piperazin-1-yl]-2-oxo-ethyl]-1-[2-(2,6-dioxo-3-piperidyl)-1,3-dioxo-isoindolin-4-yl]piperidine-4-carboxamide], the DC50 (6 h incubation) was 134 nM and the Emax [1] was 62%.
For `Nc1nnc(-c2ccccc2O)cc1N1CC2CCC(C1)N2c1cccc(OCCN2CCN(C(=O)CNC(=O)C3CCN(c4ccc5c(c4)C(=O)N(C4CCC(=O)NC4=O)C5=O)CC3)CC2)c1` (racemic) [Example 19, rac-N-[2-[4-[2-[3-[3-[3-amino-6-(2-hydroxyphenyl)pyridazin-4-yl]-3,8-diazabicyclo[3.2.1]octan-8-yl]phenoxy]ethyl]piperazin-1-yl]-2-oxo-ethyl]-1-[2-(2,6-dioxo-3-piperidyl)-1,3-dioxo-isoindolin-5-yl]piperidine-4-carboxamide], the “HiBit A549 SMARCA2 Emax (%) 6 h” value (6 h incubation, Emax = amount of residual protein remaining in the cell following compound treatment) was 34% and the DC50 (6 h incubation) was 64 nM.
Compound `Nc1nnc(-c2ccccc2O)cc1N1CC2CCC(C1)N2c1cccc(OCCN2CCN(C(=O)CCC(=O)N3CCC(Nc4cccc5c4C(=O)N(C4CCC(=O)NC4=O)C5=O)CC3)CC2)c1` (racemic) [Example 20, rac-4-[[1-[4-[4-[2-[3-[3-[3-amino-6-(2-hydroxyphenyl)pyridazin-4-yl]-3,8-diazabicyclo[3.2.1]octan-8-yl]phenoxy]ethyl]piperazin-1-yl]-4-oxo-butanoyl]-4-piperidyl]amino]-2-(2,6-dioxo-3-piperidyl)isoindoline-1,3-dione] has a DC50 (6 h incubation) of 168 nM and an Emax [1] of 49%.
In the case of `CN(c1cccc2c1C(=O)N(C1CCC(=O)NC1=O)C2=O)C1CCN(C(=O)CCC(=O)N2CCN(CCOc3cccc(N4C5CCC4CN(c4cc(-c6ccccc6O)nnc4N)C5)c3)CC2)CC1` (racemic) [Example 21, rac-4-[[1-[4-[4-[2-[3-[3-[3-amino-6-(2-hydroxyphenyl)pyridazin-4-yl]-3,8-diazabicyclo[3.2.1]octan-8-yl]phenoxy]ethyl]piperazin-1-yl]-4-oxo-butanoyl]-4-piperidyl]-methyl-amino]-2-(2,6-dioxo-3-piperidyl)isoindoline-1,3-dione], the DC50 (6 h incubation) is reported as 118 nM and the Emax [1] is reported as 29%.
Compound `Nc1nnc(-c2ccccc2O)cc1N1CC2CCC(C1)N2c1cccc(OCCN2CCN(C(=O)CCC(=O)N3CCN(Cc4cccc5c4C(=O)N(C4CCC(=O)NC4=O)C5=O)CC3)CC2)c1` (racemic) [Example 22, rac-4-[[4-[4-[4-[2-[3-[3-[3-amino-6-(2-hydroxyphenyl)pyridazin-4-yl]-3,8-diazabicyclo[3.2.1]octan-8-yl]phenoxy]ethyl]piperazin-1-yl]-4-oxo-butanoyl]piperazin-1-yl]methyl]-2-(2,6-dioxo-3-piperidyl)isoindoline-1,3-dione] has a DC50 (6 h incubation) of 212 nM and an Emax [1] of 28%.
`Nc1nnc(-c2ccccc2O)cc1N1CC2CCC(C1)N2c1cccc(OC2CCC(CC(=O)N3CC4(C3)CN(C(=O)C3CCN(c5ccc6c(c5)C(=O)N(C5CCC(=O)NC5=O)C6=O)CC3)C4)CC2)c1` (racemic) [Example 31, rac-5-[4-[6-[2-[4-[3-[3-[3-amino-6-(2-hydroxyphenyl)pyridazin-4-yl]-3,8-diazabicyclo[3.2.1]octan-8-yl]phenoxy]cyclohexyl]acetyl]-2,6-diazaspiro[3.3]heptane-2-carbonyl]-1-piperidyl]-2-(2,6-dioxo-3-piperidyl)isoindoline-1,3-dione] showed a DC50 (6 h incubation) of 383 nM and an Emax [1] of 55%.
For `Nc1nnc(-c2ccccc2O)cc1N1CC2CCC(C1)N2c1cccc(OCCN2CCN(C(=O)CC3CCN(c4ccc5c(c4)C(=O)N(C4CCC(=O)NC4=O)C5=O)CC3)CC2)c1` (racemic) [Example 33, rac-5-[4-[2-[4-[2-[3-[3-[3-amino-6-(2-hydroxyphenyl)pyridazin-4-yl]-3,8-diazabicyclo[3.2.1]octan-8-yl]phenoxy]ethyl]piperazin-1-yl]-2-oxo-ethyl]-1-piperidyl]-2-(2,6-dioxo-3-piperidyl)isoindoline-1,3-dione], the DC50 (6 h incubation) was 15 nM and the Emax [1] was 39%.
For `Nc1nnc(-c2ccccc2O)cc1N1CC2CCC(C1)N2c1cccc(OCCN2CCN(CCC3CCN(c4ccc5c(c4)C(=O)N(C4CCC(=O)NC4=O)C5=O)CC3)CC2)c1` (racemic) [Example 34, rac-5-[4-[2-[4-[2-[3-[3-[3-amino-6-(2-hydroxyphenyl)pyridazin-4-yl]-3,8-diazabicyclo[3.2.1]octan-8-yl]phenoxy]ethyl]piperazin-1-yl]ethyl]-1-piperidyl]-2-(2,6-dioxo-3-piperidyl)isoindoline-1,3-dione], the DC50 (6 h incubation) was 26 nM and the Emax [1] was 24%.
